In patent US10562908B2, “Ortho substituted phenylpyrazolo- and phenylpyrrolo-pyridazine derivatives having multimodal activity against pain” (priority 2016, dated 2020):
Where two headings read alike, the source gives them in different places.

Legend:
human μ-opioid receptor = target: T1, human μ-opioid receptor (Homo sapiens, UniProt P35372); assay: Human μ-opioid receptor radioligand assay ([3H]-DAMGO); assay type: binding
T1 construct: expressed in transfected cells; host or cells: CHO-K1
Experimental: Human μ-Opioid Receptor Radioligand Assay
To investigate binding properties of test compounds to human μ-opioid receptor, transfected CHO-K1 cell membranes and [^3H]-DAMGO (Perkin Elmer, ES-542-C), as the radioligand, were used. The assay was carried out with 20 μg of membrane suspension, 1 nM of [^3H]-DAMGO in either absence or presence of either buffer or 10 μM Naloxone for total and non-specific binding, respectively. Binding buffer contained Tris-HCl 50 mM, MgCl2 5 mM at pH 7.4. Plates were incubated at 27° C. for 60 minutes. After the incubation period, the reaction mix was then transferred to MultiScreen HTS, FC plates (Millipore), filtered and plates were washed 3 times with ice-cold 10 mM Tris-HCL (pH 7.4). Filters were dried and counted at approximately 40% efficiency in a MicroBeta scintillation counter (Perkin-Elmer) using EcoScint liquid scintillation cocktail, preferably, transfected CHO-K1 cell membranes (20 μg) were incubated with 1 nM of [^3H]-DAMGO in assay buffer containing Tris-HCl 50 mM, MgCl2 5 mM at pH 7.4. NBS (non-specific binding) was measured by adding 10 μM Naloxone. The binding of the test compound was measured at five different concentrations. Plates were incubated at 27° C. for 60 minutes. After the incubation period, the reaction mix was then transferred to MultiScreen HTS, FC plates (Millipore), filtered and plates were washed 3 times with ice-cold 10 mM Tris-HCL (pH 7.4). Filters were dried and counted at approximately 40% efficiency in a MicroBeta scintillation counter (Perkin-Elmer) using EcoScint liquid scintillation cocktail.

[1] = target: Human α2δ-1 subunit of Cav2.2 calcium channel (Homo sapiens, UniProt P54289); assay: Human α2δ-1 subunit of Cav2.2 calcium channel assay ([3H]-Gabapentin); assay type: binding
Experimental: Human α2δ-1 Subunit of Cav2.2 Calcium Channel Assay
Human α2δ-1 enriched membranes (2.5 μg) were incubated with 15 nM of radiolabeled [3H]-Gabapentin in assay buffer containing Hepes-KOH 10 mM, pH 7.4. NSB (non specific binding) was measured by adding 10 μM pregabalin. After 60 min incubation at 27° C., binding reaction was terminated by filtering through Multiscreen GF/C (Millipore) presoaked in 0.5% polyethyleneimine in Vacuum Manifold Station, followed by 3 washes with ice-cold filtration buffer containing 50 mM Tris-HCl, pH 7.4. Filter plates were dried at 60° C. for 1 hour and 30 μl of scintillation cocktail were added to each well before radioactivity reading. Readings were performed in a Trilux 1450 Microbeta radioactive counter (Perkin Elmer), i.e. Human α2δ-1 enriched membranes (2.5 μg) were incubated with 15 nM of radiolabeled [3H]-Gabapentin in assay buffer containing Hepes-KOH 10 mM, pH 7.4. NSB (non specific binding) was measured by adding 10 μM pregabalin. The binding of the test compound was measured at five different concentrations. After 60 min incubation at 27° C., binding reaction was terminated by filtering through Multiscreen GF/C (Millipore) presoaked in 0.5% polyethyleneimine in Vacuum Manifold Station, followed by 3 washes with ice-cold filtration buffer containing 50 mM Tris-HCl, pH 7.4. Filter plates were dried at 60° C. for 1 hour and 30 μl of scintillation cocktail were added to each well before radioactivity reading. Readings were performed in a Trilux 1450 Microbeta radioactive counter (Perkin Elmer).

[2] = transfected CHO-K1 cell membranes, 1 nM [3H]-DAMGO, read-out: Binding μ (Ki)
[3] = human α2δ-1 enriched membranes, 15 nM [3H]-Gabapentin, read-out: Binding α2δ-1 (Ki)

T1 sequence (P35372 whole entry): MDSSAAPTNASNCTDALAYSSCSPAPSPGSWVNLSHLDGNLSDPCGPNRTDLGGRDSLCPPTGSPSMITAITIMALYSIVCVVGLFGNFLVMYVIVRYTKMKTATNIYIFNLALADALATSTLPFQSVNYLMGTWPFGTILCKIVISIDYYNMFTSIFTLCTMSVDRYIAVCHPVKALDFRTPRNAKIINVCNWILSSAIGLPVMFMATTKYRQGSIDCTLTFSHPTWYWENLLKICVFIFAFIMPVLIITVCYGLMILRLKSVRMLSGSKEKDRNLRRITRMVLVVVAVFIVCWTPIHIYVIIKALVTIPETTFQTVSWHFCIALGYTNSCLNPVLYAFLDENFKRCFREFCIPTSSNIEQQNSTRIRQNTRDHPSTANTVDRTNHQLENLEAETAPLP
Human α2δ-1 subunit of Cav2.2 calcium channel, sequence (P54289 25-1103): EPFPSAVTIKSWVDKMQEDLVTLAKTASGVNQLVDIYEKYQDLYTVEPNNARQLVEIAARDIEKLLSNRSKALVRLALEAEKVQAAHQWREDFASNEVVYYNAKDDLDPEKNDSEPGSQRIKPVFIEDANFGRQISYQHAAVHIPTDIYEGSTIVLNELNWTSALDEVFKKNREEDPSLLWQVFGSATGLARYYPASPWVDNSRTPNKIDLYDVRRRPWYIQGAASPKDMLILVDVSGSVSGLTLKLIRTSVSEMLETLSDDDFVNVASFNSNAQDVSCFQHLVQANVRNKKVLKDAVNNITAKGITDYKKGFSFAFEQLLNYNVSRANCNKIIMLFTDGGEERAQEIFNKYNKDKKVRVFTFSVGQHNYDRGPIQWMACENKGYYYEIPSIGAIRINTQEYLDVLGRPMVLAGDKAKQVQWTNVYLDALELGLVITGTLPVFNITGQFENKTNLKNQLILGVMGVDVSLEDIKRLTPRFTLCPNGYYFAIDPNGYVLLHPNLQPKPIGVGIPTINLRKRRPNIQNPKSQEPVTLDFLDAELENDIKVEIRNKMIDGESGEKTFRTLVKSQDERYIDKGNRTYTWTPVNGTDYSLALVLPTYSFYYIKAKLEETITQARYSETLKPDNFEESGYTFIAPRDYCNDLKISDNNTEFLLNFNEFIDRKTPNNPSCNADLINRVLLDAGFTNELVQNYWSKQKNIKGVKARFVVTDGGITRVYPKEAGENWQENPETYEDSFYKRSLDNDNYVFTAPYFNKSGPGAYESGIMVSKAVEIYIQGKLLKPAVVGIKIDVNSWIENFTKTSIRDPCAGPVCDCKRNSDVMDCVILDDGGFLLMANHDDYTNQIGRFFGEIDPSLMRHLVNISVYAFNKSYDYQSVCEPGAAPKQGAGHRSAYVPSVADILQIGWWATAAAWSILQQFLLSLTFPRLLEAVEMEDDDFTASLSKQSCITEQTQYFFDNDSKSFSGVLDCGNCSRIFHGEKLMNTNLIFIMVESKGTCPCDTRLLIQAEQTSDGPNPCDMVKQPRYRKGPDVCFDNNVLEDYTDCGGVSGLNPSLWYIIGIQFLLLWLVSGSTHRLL

Row | Structure (SMILES) | Ki (human μ-opioid receptor; [2]) [nM] | Ki [1, 3] [nM] | Ki (human μ-opioid receptor) [nM] | Ki [1] [nM]
1 | Cc1nnc(N(C)C)c2nn(-c3ccccc3OC3CCNC3)c(C)c12 (centres unmarked) [Example 50, N,N,3,4-Tetramethyl-2-(2-(pyrrolidin-3-yloxy)phenyl)-2H-pyrazolo[3,4-d]pyridazin-7-amine] | > 500 | > 5000 |  | 
2 | CNCCC(COC)Oc1ccccc1-n1nc2c(N(C)C)nnc(C)c2c1C (centres unmarked) [Example 51, 2-(2-((1-methoxy-4-(methylamino)butan-2-yl)oxy)phenyl)-N,N,3,4-tetramethyl-2H-pyrazolo[3,4-d]pyridazin-7-amine] | > 500 | > 5000 |  | 
3 | Cc1nnc(N(C)C)c2nn(-c3ccccc3OC(CCN(C)C)c3ccccc3)c(C)c12 (centres unmarked) [Example 52, 2-(2-(3-(Dimethylamino)-1-phenylpropoxy)phenyl)-N,N,3,4-tetramethyl-2H-pyrazolo[3,4-d]pyridazin-7-amine] |  |  | 100 to 500 | 500 to 5000
4 | Cc1nnc(N(C)C)c2nn(-c3ccccc3OC3CCN(C)C3)c(C)c12 (centres unmarked) [Example 53, N,N,3,4-tetramethyl-2-(2-((1-methylpyrrolidin-3-yl)oxy)phenyl)-2H-pyrazolo[3,4-d]pyridazin-7-amine] | > 500 | > 5000 |  | 
5 | Cc1nnc(N(C)C)c2nn(-c3ccccc3OC(c3ccccc3)C3CCN(C)CC3)c(C)c12 (centres unmarked) [Example 54, N,N,3,4-tetramethyl-2-(2-((1-methylpiperidin-4-yl)(phenyl)methoxy)phenyl)-2H-pyrazolo[3,4-d]pyridazin-7-amine] | > 500 | > 5000 |  | 
6 | Cc1nnc(N(C)C)c2nn(-c3ccccc3OC3CCN(CCc4ccccc4)C3)c(C)c12 (centres unmarked) [Example 55, N,N,3,4-tetramethyl-2-(2-((1-phenethylpyrrolidin-3-yl)oxy)phenyl)-2H-pyrazolo[3,4-d]pyridazin-7-amine] |  |  | 100 to 500 | 500 to 5000
7 | Cc1nnc(N(C)C)c2nn(-c3ccccc3OC(CCNCC(F)F)c3ccccc3)c(C)c12 (centres unmarked) [Example 56, 2-(2-(3-((2,2-difluoroethyl)amino)-1-phenylpropoxy)phenyl)-N,N,3,4-tetramethyl-2H-pyrazolo[3,4-d]pyridazin-7-amine] |  |  | 100 to 500 | 500 to 5000
8 | Cc1nnc(N(C)C)c2nn(-c3ccccc3OCC3CCN(Cc4ccccc4)CC3)c(C)c12 [Example 57, 2-(2-((1-benzylpiperidin-4-yl)methoxy)phenyl)-N,N,3,4-tetramethyl-2H-pyrazolo[3,4-c]pyridazin-7-amine] | > 500 | > 5000 |  | 
9 | Cc1nnc(N(C)C)c2nn(-c3ccccc3OCC3CCN(CCc4ccccc4)CC3)c(C)c12 [Example 58, N,N,3,4-tetramethyl-2-(2-((1-phenethylpiperidin-4-yl)methoxy)phenyl)-2H-pyrazolo[3,4-d]pyridazin-7-amine] |  |  | < 100 | > 5000
10 | CNCCC(Oc1ccccc1-n1nc2c(N(C)CCO)nnc(C)c2c1C)c1ccccc1 (centres unmarked) [Example 59, 2-((3,4-Dimethyl-2-(2-(3-(methylamino)-1-phenylpropoxy)phenyl)-2H-pyrazolo[3,4-d]pyridazin-7-yl)(methyl)amino)etanol] | > 500 | 500 to 5000 |  | 
11 | CNCCC(Oc1ccccc1-n1nc2c(N(C)CCOC)nnc(C)c2c1C)c1ccccc1 (centres unmarked) [Example 60, N-(2-methoxyethyl)-N,3,4-trimethyl-2-(2-(3-(methylamino)-1-phenylpropoxy)phenyl)-2H-pyrazolo[3,4-d]pyridazin-7-amine] | > 500 | 500 to 5000 |  | 
12 | CNCCC(Oc1ccccc1-n1nc2c(N(C)CCCO)nnc(C)c2c1C)c1ccccc1 (centres unmarked) [Example 61, 3-((3,4-dimethyl-2-(2-(3-(methylamino)-1-phenylpropoxy)phenyl)-2H-pyrazolo[3,4-d]pyridazin-7-yl)(methyl)amino)propan-1-ol] | > 500 | 500 to 5000 |  | 
13 | CNCCC(Oc1ccccc1-n1nc2c(N(C)CCN(C)C)nnc(C)c2c1C)c1ccccc1 (centres unmarked) [Example 62, N1-(3,4-dimethyl-2-(2-(3-(methylamino)-1-phenylpropoxy)phenyl)-2H-pyrazolo[3,4-d]pyridazin-7-yl)-N1,N2,N2-trimethylethane-1,2-diamine] | > 500 | 500 to 5000 |  | 
14 | CNCCC(Oc1ccccc1-n1nc2c(CC#N)nnc(C)c2c1C)c1ccccc1 (centres unmarked) [Example 63, 2-(3,4-Dimethyl-2-(2-(3-(methylamino)-1-phenylpropoxy)phenyl)-2H-pyrazolo[3,4-d]pyridazin-7-yl)acetonitrile] | > 500 | > 5000 |  | 
15 | CNCCC(Oc1ccccc1-n1nc2c(Cc3noc(C)n3)nnc(C)c2c1C)c1ccccc1 (centres unmarked) [Example 64, 3-(2-(3,4-Dimethyl-7-((5-methyl-1,2,4-oxadiazol-3-yl)methyl)-2H-pyrazolo[3,4-d]pyridazin-2-yl)phenoxy)-N-methyl-3-phenylpropan-1-amine] | > 500 | > 5000 |  | 
16 | CNCCC(Oc1ccccc1-n1c(C)c2c(C)nnc(C)c2c1C)c1ccccc1 (centres unmarked) [Example 65, N-Methyl-3-phenyl-3-(2-(1,4,5,7-tetramethyl-6H-pyrrolo[3,4-d]pyridazin-6-yl)phenoxy)propan-1-amine] |  |  | 100 to 500 | 500 to 5000
17 | CNCCC(Oc1ccccc1-n1nc2cnnc(C)c2c1C)c1ccccc1 (centres unmarked) [Example 66, 3-(2-(3,4-Dimethyl-2H-pyrazolo[3,4-d]pyridazin-2-yl)phenoxy)-N-methyl-3-phenylpropan-1-amine] | > 500 | > 5000 |  | 
18 | CNCC(Oc1ccccc1-n1nc2c(N(C)C)nnc(C)c2c1C)c1ccccc1 (centres unmarked) [Example 67, N,N,3,4-Tetramethyl-2-(2-(2-(methylamino)-1-phenylethoxy)phenyl)-2H-pyrazolo[3,4-d]pyridazin-7-amine] | > 500 | 500 to 5000 |  | 
19 | CNCCC(Oc1ccccc1-n1nc2c(NC)nnc(C)c2c1C)c1ccccc1 (centres unmarked) [Example 68, N,3,4-Trimethyl-2-(2-(3-(methylamino)-1-phenylpropoxy)phenyl)-2H-pyrazolo[3,4-d]pyridazin-7-amine] | > 500 | 500 to 5000 |  | 
20 | CNCCC(Oc1ccccc1-n1nc2c(C)nnc(C)c2c1C)c1ccccc1 (centres unmarked) [Example 69, N-methyl-3-phenyl-3-(2-(3,4,7-trimethyl-2H-pyrazolo[3,4-d]pyridazin-2-yl)phenoxy)propan-1-amine] | > 500 | > 5000 |  | 
21 | CNCCC(Oc1ccccc1-n1nc2c(C(C)C)nnc(C)c2c1C)c1ccccc1 (centres unmarked) [Example 70, 3-(2-(7-isopropyl-3,4-dimethyl-2H-pyrazolo[3,4-d]pyridazin-2-yl)phenoxy)-N-methyl-3-phenylpropan-1-amine] | > 500 | > 5000 |  | 
22 | CNCCC(Oc1ccccc1-n1cc2cnnc(N(C)C)c2n1)c1ccccc1 (centres unmarked) [Example 71, N,N-dimethyl-2-(2-(3-(methylamino)-1-phenylpropoxy)phenyl)-2H-pyrazolo[3,4-d]pyridazin-7-amine] | > 500 | 500 to 5000 |  | 
23 | CNCc1ccccc1COc1ccccc1-n1nc2c(N(C)C)nnc(C)c2c1C [Example 72, N,N,3,4-Tetramethyl-2-(2-((2-((methylamino)methyl)benzyl)oxy)phenyl)-2H-pyrazolo[3,4-d]pyridazin-7-amine] | > 500 | 500 to 5000 |  | 
24 | Cc1nnc(N(C)C)c2nn(-c3ccccc3OC(CCNCCF)c3ccccc3)c(C)c12 (centres unmarked) [Example 73, 2-(2-(3-((2-Fluoroethyl)amino)-1-phenylpropoxy)phenyl)-N,N,3,4-tetramethyl-2H-pyrazolo[3,4-d]pyridazin-7-amine] |  |  | < 100 | 500 to 5000
25 | Cc1nnc(N(C)C)c2nn(-c3ccccc3OC(Cc3ccccc3)CN(C)Cc3ccccc3)c(C)c12 (centres unmarked) [Example 74, 2-(2-((1-(Benzyl(methyl)amino)-3-phenylpropan-2-yl)oxy)phenyl)-N,N,3,4-tetramethyl-2H-pyrazolo[3,4-d]pyridazin-7-amine] | > 500 | > 5000 |  | 
